Test results published in ChEMBL document CHEMBL1121390, “Rm values and structure-activity relationship of benzodiazepines” (J Med Chem, 1980).

How the values were obtained:
[1] = Partition coefficient (logP); type: physicochemical; conditions: octanol/water
Rattus norvegicus [2] = organism: Rattus norvegicus; assay: ED50 value was reported as log1/C, which is the concentration required to reduce locomotor activity by 50% in rats; type: functional
Rattus norvegicus [3] = organism: Rattus norvegicus; assay: Fourfod increase in lever pressing in punished rats, ED50 value reported as log1/C; type: functional
Rattus norvegicus [4] = organism: Rattus norvegicus; assay: Halving of lever pressing in non punished rats, ED50 value reported as log 1/C; type: functional

Compound: CN1C(=O)CN=C(c2ccccc2Cl)c2cc(Cl)ccc21
- logP [1]: 3.25
- Log 1/C (Rattus norvegicus [2]): 2.409
- Log 1/C (Rattus norvegicus [3]): 2.824
- Log 1/C (Rattus norvegicus [4]): 2.409

Compound: CCCC(CCC)C(=O)OC1N=C(c2ccccc2)c2cc(Cl)ccc2NC1=O (stereo not drawn)
- logP [1]: 5.25
- Log 1/C (Rattus norvegicus [2]): 0.503

Compound: CN1C(=O)CN=C(C2C=CCCC2)c2cc(Cl)ccc21 (stereo not drawn)
- logP [1]: 2.76

Compound: O=C1C(O)N=C(c2ccccc2Cl)c2cc(Cl)ccc2N1CCO (stereo not drawn)
- logP [1]: 1.94
- Log 1/C (Rattus norvegicus [2]): 2.005
- Log 1/C (Rattus norvegicus [3]): 1.959
- Log 1/C (Rattus norvegicus [4]): 1.711

Compound: O=C1C(O)N=C(c2ccccc2)c2cc([N+](=O)[O-])ccc2N1CCO (stereo not drawn)
- logP [1]: 0.72
- Log 1/C (Rattus norvegicus [2]): 0.34

Compound: CC(=O)OC1N=C(c2ccccc2)c2cc(Cl)ccc2N(CCO)C1=O (stereo not drawn)
- logP [1]: 2.01

Compound: CNC1C[N+]([O-])=C(c2ccccc2)c2cc(Cl)ccc2N1 (stereo not drawn)
- logP [1]: 2.5
- Log 1/C (Rattus norvegicus [2]): 1.628
- Log 1/C (Rattus norvegicus [3]): 1.578
- Log 1/C (Rattus norvegicus [4]): 1.277

Compound: CCOC1N=C(c2ccccc2)c2cc(Cl)ccc2N(CCOC(C)=O)C1=O (stereo not drawn)
- logP [1]: 2.87

Compound: CCN(CC)CCN1C(=O)C(O)N=C(c2ccccc2)c2cc(Cl)ccc21 (stereo not drawn)
- logP [1]: 1.67

Compound: O=C(O)CCC(=O)OCCN1C(=O)C[N+]([O-])=C(c2ccccc2)c2cc(Cl)ccc21
- logP [1]: 0.19
- Log 1/C (Rattus norvegicus [2]): 0.762

Compound: O=C1C(O)N=C(c2ccccc2)c2cc(Cl)ccc2N1CCCO (stereo not drawn)
- logP [1]: 1.87

Compound: CC(=O)OCCCN1C(=O)C(OC(C)=O)N=C(c2ccccc2)c2cc(Cl)ccc21 (stereo not drawn)
- logP [1]: 3

Compound: O=C1C[N+]([O-])=C(c2ccccc2)c2cc(Cl)ccc2N1CCO
- logP [1]: 0.44
- Log 1/C (Rattus norvegicus [2]): 0.346

Compound: CNC(=O)N1C(=O)CN=C(c2ccccc2)c2cc([N+](=O)[O-])ccc21
- logP [1]: 1.95

Compound: O=C1C(O)N=C(c2ccccc2)c2cc(Cl)ccc2N1CCO (stereo not drawn)
- logP [1]: 1.35
- Log 1/C (Rattus norvegicus [2]): 0.797
- Log 1/C (Rattus norvegicus [3]): 0.361
- Log 1/C (Rattus norvegicus [4]): 0.42

Compound: CCOC1N=C(c2ccccc2)c2cc(Cl)ccc2N(CCCl)C1=O (stereo not drawn)
- logP [1]: 3.95
- Log 1/C (Rattus norvegicus [2]): 0.193

Compound: CCN(CC)CCN1C(=O)C(O)N=C(c2ccccc2F)c2cc(Cl)ccc21 (stereo not drawn)
- logP [1]: 1.68

Compound: COc1cc(C(=O)OC2N=C(c3ccccc3)c3cc(Cl)ccc3NC2=O)cc(OC)c1OC (stereo not drawn)
- logP [1]: 3.54
- Log 1/C (Rattus norvegicus [2]): 0.358

Compound: CC(=O)OCCN1C(=O)C(OC(C)=O)N=C(c2ccccc2)c2cc(Cl)ccc21 (stereo not drawn)
- logP [1]: 2.48

Compound: O=C1C[N+]([O-])=C(c2ccccc2)c2ccccc2N1
- logP [1]: 1.46

Compound: O=C(O)CCC(=O)OC1N=C(c2ccccc2)c2cc(Cl)ccc2NC1=O (stereo not drawn)
- logP [1]: 1.41
- Log 1/C (Rattus norvegicus [2]): 1.381

Compound: CCN(CC)CCN1C(=O)C(O)N=C(c2ccccc2Cl)c2cc(Cl)ccc21 (stereo not drawn)
- logP [1]: 2.26

Compound: O=C1Nc2ccc(Cl)cc2C(c2ccccc2F)=NC1O (stereo not drawn)
- logP [1]: 1.48
- Log 1/C (Rattus norvegicus [2]): 2.501
- Log 1/C (Rattus norvegicus [3]): 2.36
- Log 1/C (Rattus norvegicus [4]): 2.045

Compound: CCOC1N=C(c2ccccc2)c2cc(Cl)ccc2N(CCO)C1=O (stereo not drawn)
- logP [1]: 2.4

Compound: O=C1CN=C(c2ccccc2F)c2cc(Cl)ccc2N1
- logP [1]: 2.15
- Log 1/C (Rattus norvegicus [2]): 2.046
- Log 1/C (Rattus norvegicus [3]): 2.284
- Log 1/C (Rattus norvegicus [4]): 1.825

Compound: O=C1CN=C(c2ccccc2Cl)c2cc([N+](=O)[O-])ccc2N1 [CLONAZEPAM]
- logP [1]: 2.41

Compound: O=C1CN=C(c2ccccc2Cl)c2cc(Cl)ccc2N1 [DELORAZEPAM]
- logP [1]: 2.73
- Log 1/C (Rattus norvegicus [2]): 2.79
- Log 1/C (Rattus norvegicus [3]): 2.678
- Log 1/C (Rattus norvegicus [4]): 2.509

Compound: CN1C(=O)CN=C(c2ccccc2)c2cc(Cl)ccc21 [DIAZEPAM]
- Log 1/C (Rattus norvegicus [2]): 1.793
- Log 1/C (Rattus norvegicus [3]): 1.876
- Log 1/C (Rattus norvegicus [4]): 1.659

Compound: O=C1C(O)N=C(c2ccccc2F)c2cc(Cl)ccc2N1CCO (stereo not drawn) [DOXEFAZEPAM]
- logP [1]: 1.36
- Log 1/C (Rattus norvegicus [2]): 2.239
- Log 1/C (Rattus norvegicus [3]): 1.648
- Log 1/C (Rattus norvegicus [4]): 1.697

Compound: CN1C(=O)CN=C(c2ccccc2F)c2cc(Cl)ccc21 [FLUDIAZEPAM]
- logP [1]: 2.67
- Log 1/C (Rattus norvegicus [2]): 2.598
- Log 1/C (Rattus norvegicus [3]): 2.721
- Log 1/C (Rattus norvegicus [4]): 2.417

Compound: CCN(CC)CCN1C(=O)CN=C(c2ccccc2F)c2cc(Cl)ccc21 [FLURAZEPAM]
- logP [1]: 2.35
- Log 1/C (Rattus norvegicus [2]): 1.943
- Log 1/C (Rattus norvegicus [3]): 1.745
- Log 1/C (Rattus norvegicus [4]): 1.291

Compound: CN1C(=O)C(O)N=C(c2ccccc2F)c2cc(Cl)ccc21 (stereo not drawn) [FLUTEMAZEPAM]
- logP [1]: 2
- Log 1/C (Rattus norvegicus [2]): 2.81
- Log 1/C (Rattus norvegicus [3]): 2.585
- Log 1/C (Rattus norvegicus [4]): 2.371

Compound: O=C1CN=C(c2ccccc2)c2cc(Cl)ccc2N1CC(F)(F)F [HALAZEPAM]
- logP [1]: 3.73
- Log 1/C (Rattus norvegicus [2]): 1.097

Compound: O=C1Nc2ccc(Cl)cc2C(c2ccccc2Cl)=NC1O (stereo not drawn) [LORAZEPAM]
- Log 1/C (Rattus norvegicus [2]): 3.145
- Log 1/C (Rattus norvegicus [3]): 2.444
- Log 1/C (Rattus norvegicus [4]): 2.897

Compound: CN1C(=O)C(O)N=C(c2ccccc2Cl)c2cc(Cl)ccc21 (stereo not drawn) [LORMETAZEPAM]
- logP [1]: 2.58
- Log 1/C (Rattus norvegicus [2]): 2.594
- Log 1/C (Rattus norvegicus [3]): 2.658
- Log 1/C (Rattus norvegicus [4]): 2.394

Compound: CN1CCN=C(c2ccccc2)c2cc(Cl)ccc21 [MEDAZEPAM]
- logP [1]: 4.05
- Log 1/C (Rattus norvegicus [2]): 1.443

Compound: O=C1CN=C(c2ccccc2)c2cc([N+](=O)[O-])ccc2N1 [NITRAZEPAM]
- logP [1]: 2.12
- Log 1/C (Rattus norvegicus [2]): 2.326

Compound: O=C1CN=C(c2ccccc2)c2cc(Cl)ccc2N1 [NORDAZEPAM]
- Log 1/C (Rattus norvegicus [2]): 1.247
- Log 1/C (Rattus norvegicus [3]): 1.83
- Log 1/C (Rattus norvegicus [4]): 0.832

Compound: O=C1Nc2ccc(Cl)cc2C(c2ccccc2)=NC1O (stereo not drawn) [OXAZEPAM]
- Log 1/C (Rattus norvegicus [2]): 1.191
- Log 1/C (Rattus norvegicus [3]): 1.192
- Log 1/C (Rattus norvegicus [4]): 0.961

Compound: O=C1CN=C(c2ccccc2)c2cc(Cl)ccc2N1CC1CC1 [PRAZEPAM]
- logP [1]: 3.72
- Log 1/C (Rattus norvegicus [2]): 0.709

Compound: CN1C(=O)C(O)N=C(c2ccccc2)c2cc(Cl)ccc21 (stereo not drawn) [TEMAZEPAM]
- Log 1/C (Rattus norvegicus [2]): 1.629
- Log 1/C (Rattus norvegicus [3]): 1.883
- Log 1/C (Rattus norvegicus [4]): 1.228
